In patent US12421210B2, “Fused bicyclic heterocycles as therapeutic agents” (NEW YORK UNIVERSITY, priority 2018, dated 2025) one finds IC50 data, which are given here for 23 compounds.

Structures are written as SMILES. A value given as a limit tells only on which side of the number the result lay.

The target in one test is human NAMPT enzyme (His-hNAMPT) (Homo sapiens (Human), UniProt P43490). The test can be described thus: NAMPT enzymatic inhibition assay (fluorescence, NADH product). The test is classed as biochemical. As to conditions: [BPS]; read-out: NAMPT IC50 (μM) [BPS].
human NAMPT enzyme (His-hNAMPT), sequence (P43490 whole entry): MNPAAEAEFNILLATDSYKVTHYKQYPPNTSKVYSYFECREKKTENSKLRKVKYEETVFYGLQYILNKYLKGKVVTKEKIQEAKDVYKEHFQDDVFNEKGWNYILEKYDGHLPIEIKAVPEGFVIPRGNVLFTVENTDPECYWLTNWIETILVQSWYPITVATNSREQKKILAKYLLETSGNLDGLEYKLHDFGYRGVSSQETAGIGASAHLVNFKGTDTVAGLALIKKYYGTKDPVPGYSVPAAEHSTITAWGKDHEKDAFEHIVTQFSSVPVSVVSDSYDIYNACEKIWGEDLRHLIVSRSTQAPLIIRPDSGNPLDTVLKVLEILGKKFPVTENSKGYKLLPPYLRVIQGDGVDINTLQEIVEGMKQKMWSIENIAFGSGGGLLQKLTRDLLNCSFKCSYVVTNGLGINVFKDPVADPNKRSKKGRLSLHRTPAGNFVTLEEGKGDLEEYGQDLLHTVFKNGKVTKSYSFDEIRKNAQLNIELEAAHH
For orientation: IC50 means the concentration needed to halve the response being measured. In the case of `O=C(/C=C/c1cccnc1)NCC[C@@H]1[C@H]2CN(c3ccccc3)C[C@@H]12` [Example 117, (E)-N-(2-((1R,5S,6s)-3-phenyl-3-azabicyclo[3.1.0]hexan-6-yl)ethyl)-3-(pyridin-3-yl)acrylamide], the IC50 is 0.01 to 0.49 µM.
Same read-out and setting: the result for `O=C(NCC[C@@H]1[C@H]2CN(c3ncccn3)C[C@@H]12)c1ccc2nccn2c1` [Example 118, N-(2-((1R,5S,6s)-3-(pyrimidin-2-yl)-3-azabicyclo[3.1.0]hexan-6-yl)ethyl)imidazo[1,2-a]pyridine-6-carboxamide] reads 0.01 to 0.49 µM; that for `O=C(NCC[C@@H]1[C@H]2CN(c3ncccn3)C[C@@H]12)c1cc2ccncc2o1` [Example 119, N-(2-((1R,5S,6s)-3-(pyrimidin-2-yl)-3-azabicyclo[3.1.0]hexan-6-yl)ethyl)furo[2,3-c]pyridine-2-carboxamide], 0.01 to 0.49 µM; that for `O=C(NCC[C@@H]1[C@H]2CN(c3nc4ccccc4s3)C[C@@H]12)c1cc2ccncc2o1` [Example 120, N-(2-((1R,5S,6s)-3-(benzo[d]thiazol-2-yl)-3-azabicyclo[3.1.0]hexan-6-yl)ethyl)furo[2,3-c]pyridine-2-carboxamide], 0.01 to 0.49 µM.
For `O=C(NCC[C@@H]1[C@H]2CN(c3cccc4ccccc34)C[C@@H]12)c1cc2ccncc2o1` [Example 121, N-(2-((1R,5S,6s)-3-(naphthalen-1-yl)-3-azabicyclo[3.1.0]hexan-6-yl)ethyl)furo[2,3-c]pyridine-2-carboxamide], the IC50 lay in the range of 0.01 to 0.49 µM.
As for `O=C(NCC[C@@H]1[C@H]2CN(c3ncc4ccccc4n3)C[C@@H]12)c1cc2ccncc2o1` [Example 122, N-(2-((1R,5S,6s)-3-(quinazolin-2-yl)-3-azabicyclo[3.1.0]hexan-6-yl)ethyl)furo[2,3-c]pyridine-2-carboxamide], the IC50 fell in the range of 0.01 to 0.49 µM.
Still for that read-out and setting: the result for `O=C(/C=C/c1cccnc1)NCC[C@@H]1[C@H]2CN(c3ncccn3)C[C@@H]12` [Example 123, (E)-3-(pyridin-3-yl)-N-(2-((1R,5S,6s)-3-(pyrimidin-2-yl)-3-azabicyclo[3.1.0]hexan-6-yl)ethyl)acrylamide] reads 0.01 to 0.49 µM.
Same read-out and setting: in the case of `O=C(/C=C/c1cccnc1)NCC[C@@H]1[C@H]2CN(c3nc4ccccc4s3)C[C@@H]12` [Example 124, (E)-N-(2-((1R,5S,6s)-3-(benzo[d]thiazol-2-yl)-3-azabicyclo[3.1.0]hexan-6-yl)ethyl)-3-(pyridin-3-yl)acrylamide] it was 0.01 to 0.49 µM.
Same read-out and setting: the result for `O=C(/C=C/c1cccnc1)NCC[C@@H]1[C@H]2CN(c3ncc4ccccc4n3)C[C@@H]12` [Example 125, (E)-3-(pyridin-3-yl)-N-(2-((1R,5S,6s)-3-(quinazolin-2-yl)-3-azabicyclo[3.1.0]hexan-6-yl)ethyl)acrylamide] reads 0.01 to 0.49 µM; that for `O=C(/C=C/c1cccnc1)NCC[C@@H]1[C@H]2CN(c3cccc4ccccc34)C[C@@H]12` [Example 126, (E)-N-(2-((1R,5S,6s)-3-(naphthalen-1-yl)-3-azabicyclo[3.1.0]hexan-6-yl)ethyl)-3-(pyridin-3-yl)acrylamide], 0.01 to 0.49 µM.
In the case of `O=C(/C=C/c1cccnc1)NCC[C@@H]1[C@H]2CN(c3ccc4ccccc4c3)C[C@@H]12` [Example 127, (E)-N-(2-((1R,5S,6s)-3-(naphthalen-2-yl)-3-azabicyclo[3.1.0]hexan-6-yl)ethyl)-3-(pyridin-3-yl)acrylamide], the IC50 was in the range of 0.01 to 0.49 µM.
Turning to `O=C(/C=C/c1cccnc1)NCC[C@@H]1[C@H]2CN(c3cccc(F)c3)C[C@@H]12` [Example 128, (E)-N-(2-((1R,5S,6s)-3-(3-fluorophenyl)-3-azabicyclo[3.1.0]hexan-6-yl)ethyl)-3-(pyridin-3-yl)acrylamide], the IC50 was in the range of 0.01 to 0.49 µM.
Same read-out and setting: in the case of `COc1cccc(N2C[C@@H]3[C@@H](CCNC(=O)/C=C/c4cccnc4)[C@@H]3C2)c1` [Example 129, (E)-N-(2-((1R,5S,6s)-3-(3-methoxyphenyl)-3-azabicyclo[3.1.0]hexan-6-yl)ethyl)-3-(pyridin-3-yl)acrylamide] it was 0.01 to 0.49 µM; in that of `COc1cccc(N2C[C@@H]3[C@@H](CCNC(=O)c4cc5ccncc5o4)[C@@H]3C2)c1` [Example 130, N-(2-((1R,5S,6s)-3-(3-methoxyphenyl)-3-azabicyclo[3.1.0]hexan-6-yl)ethyl)furo[2,3-c]pyridine-2-carboxamide], 0.01 to 0.49 µM; in that of `O=C(NCC[C@@H]1[C@H]2CN(c3ncccn3)C[C@@H]12)c1cc(-c2cccnc2)on1` [Example 131, 5-(pyridin-3-yl)-N-(2-((1R,5S,6s)-3-(pyrimidin-2-yl)-3-azabicyclo[3.1.0]hexan-6-yl)ethyl)isoxazole-3-carboxamide], 0.01 to 0.49 µM.
Still for that read-out and setting: the result for `Cc1ccccc1N1C[C@@H]2[C@@H](CCNC(=O)/C=C/c3cccnc3)[C@@H]2C1` [Example 132, (E)-3-(pyridin-3-yl)-N-(2-((1R,5S,6s)-3-(o-tolyl)-3-azabicyclo[3.1.0]hexan-6-yl)ethyl)acrylamide] reads 0.01 to 0.49 µM; that for `Cc1cccc(C)c1N1C[C@@H]2[C@@H](CCNC(=O)/C=C/c3cccnc3)[C@@H]2C1` [Example 133, (E)-N-(2-((1R,5S,6s)-3-(2,6-dimethylphenyl)-3-azabicyclo[3.1.0]hexan-6-yl)ethyl)-3-(pyridin-3-yl)acrylamide], 0.01 to 0.49 µM.

Staying with this test, now noted: [HDB]; read-out: NAMPT IC50 (μM) [HDB].
As to `NC(=O)c1cccc(C(=O)N2C[C@@H]3[C@@H](CCNC(=O)/C=C/c4cccnc4)[C@@H]3C2)c1` [Example 115, 3-((1R,5S,6s)-6-(2-((E)-3-(pyridin-3-yl)acrylamido)ethyl)-3-azabicyclo[3.1.0]hexane-3-carbonyl)benzamide], the IC50 is less than 0.01 µM.
Same read-out and setting: the result for `NC(=O)c1cccc(C(=O)N2C[C@@H]3[C@@H](CCNC(=O)c4cc5cnccc5[nH]4)[C@@H]3C2)c1` [Example 116, N-(2-((1R,5S,6s)-3-(3-carbamoylbenzoyl)-3-azabicyclo[3.1.0]hexan-6-yl)ethyl)-1H-pyrrolo[3,2-c]pyridine-2-carboxamide] reads 0.01 to 0.49 µM; that for `O=C(NCC[C@@H]1[C@H]2CN(c3ccccc3)C[C@@H]12)c1cc(-c2cccnc2)on1` [Example 134, N-(2-((1R,5S,6s)-3-phenyl-3-azabicyclo[3.1.0]hexan-6-yl)ethyl)-5-(pyridin-3-yl)isoxazole-3-carboxamide], less than 0.01 µM.
In the case of `N#Cc1ccccc1N1C[C@@H]2[C@@H](CCNC(=O)/C=C/c3cccnc3)[C@@H]2C1` [Example 135, (E)-N-(2-((1R,5S,6s)-3-(2-cyanophenyl)-3-azabicyclo[3.1.0]hexan-6-yl)ethyl)-3-(pyridin-3-yl)acrylamide], the IC50 is 0.01 to 0.49 µM.
Same read-out and setting: in the case of `N#Cc1cccc(N2C[C@@H]3[C@@H](CCNC(=O)/C=C/c4cccnc4)[C@@H]3C2)c1` [Example 136, (E)-N-(2-((1R,5S,6s)-3-(3-cyanophenyl)-3-azabicyclo[3.1.0]hexan-6-yl)ethyl)-3-(pyridin-3-yl)acrylamide] it was less than 0.01 µM; in that of `N#Cc1ccc(N2C[C@@H]3[C@@H](CCNC(=O)/C=C/c4cccnc4)[C@@H]3C2)cc1` [Example 137, (E)-N-(2-((1R,5S,6s)-3-(4-cyanophenyl)-3-azabicyclo[3.1.0]hexan-6-yl)ethyl)-3-(pyridin-3-yl)acrylamide], 0.01 to 0.49 µM.
